By GI50 is commonly meant the concentration that inhibits growth by half. A word on the TGI: it is the concentration giving total growth inhibition. Low readings indicate more potent growth arrest, high ones less potent growth arrest.

19 compounds from PubChem BioAssay (NCI) can be followed below.

Molecules are shown by their SMILES.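 96-well plates; 48 h exposure; 5 concentrations. Endpoints by linear interpolation between flanking doses. Not reached: highest tested concentration assigned. GI50: concentration for 50% inhibition of growth. The concentration for full growth arrest is given as TGI.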 A value given as a limit tells only on which side of the number the result lay.

Assay in all cases: DTP human tumour cell line panel, 48 h
The subject of test [1] is M14 melanoma.
The test system of test [2] is A549 NSCLC.
Test [3] deals with NCI-H23 lung.
The subject of test [4] is SK-MEL-5 melanoma.
The subject of test [5] is CAKI-1 renal.
Test [6] concerns U251 CNS.
For test [7], the system named is SF-268 CNS.
Test [8] relates to HCT-116 colon.
For test [9], the system named is HOP-62 NSCLC.
The test system of test [10] is SF-539 CNS.

`COc1cc(/C=C/C(=O)c2cccc(-n3cc(-c4ccccc4)[nH]c3=O)c2)ccc1O`: the GI50 in test [1] is 3.57 µM; in test [2], 4.18 µM; in [3], 3.16 µM; in [4] it was 2.48 µM; in [5], 4.47 µM; in test [6], 2.5 µM. For the same compound, the GI50 in [7] was 2.74 µM; in test [8], 1.8 µM; in [9], 4.6 µM; in [10], 2.19 µM. Moreover, the TGI is 18 µM in [1]; 17.8 µM in test [2]; 11.6 µM in [3]; 6.65 µM in test [4]; 15.2 µM in test [5]; 7.9 µM in [6]. In addition, the total growth inhibition concentration (TGI) was determined as 8.31 µM in test [7], 4.11 µM in test [8], 15.3 µM in test [9] and 5.78 µM in test [10].

As for `NC(=O)c1c(NC(=O)c2ccc(C(F)(F)F)cc2Cl)sc2c1CCC(=O)C2`, the GI50 in test [1] was 0.355 µM; in test [2], 2.69 µM; in [3] it was 0.288 µM; in test [4] it was 0.684 µM; in [5], 0.244 µM; in [6] it was 0.27 µM. Besides, the GI50 in [7] is 0.456 µM; in test [8], 0.302 µM; in test [9], 1.25 µM; in test [10] it was 0.28 µM. Moreover, the TGI stood at 1.89 µM in test [1]; 14.4 µM in [2]; 1.68 µM in [3]; 2.08 µM in test [4]; 0.881 µM in [5]; 1.75 µM in test [6]. For the same compound, the TGI in [7] was 15.7 µM; in [8], 1.42 µM; in test [9] it was more than 44.5 µM; in test [10], 1.04 µM.

For `CC1Nc2ccccc2NC1C=C(C#N)C#N` (stereo not given), the TGI in test [1] worked out at 25.7 µM; in test [2], 54.1 µM; in [3] it was 34.6 µM; in test [4], 32.4 µM; in test [5], 28.9 µM; in [6], 30.3 µM. The TGI in test [7] was 29.9 µM; in [8] it was 26.8 µM; in [9], 43.7 µM; in test [10], 26 µM.

Take `O=NN(CC(=O)NNc1ccccc1)CC(=O)NNc1ccccc1`: the GI50 in [1] was 3.8 µM; in test [2] it was more than 23.1 µM; in [3] it was more than 100 µM; in test [4] it was 8.67 µM; in test [5], 3.77 µM; in test [6], more than 100 µM. The GI50 in [7] was 22.1 µM; in test [8], more than 100 µM; in test [9] it was more than 100 µM; in test [10], 2.84 µM. Also, the TGI in test [1], in [2], in test [3], in [4], in test [5] and in test [6] was more than 100 µM each time. For the same compound, the TGI in test [7] was more than 100 µM; in [8], more than 100 µM; in test [9], more than 100 µM; in [10], 10.1 µM.

As to `N#C/C(=C\c1ccccn1)c1nc2ccccc2o1`, the GI50 in [1] was 30.7 µM; in test [2] it was 36.5 µM; in test [3], 33.9 µM; in test [4] it was 18 µM; in test [5] it was 35.1 µM; in test [6], 21.5 µM. The GI50 is 31.3 µM in test [7], 18.9 µM in test [8], more than 100 µM in [9] and 23.8 µM in test [10]. Further, the TGI in test [1] was more than 100 µM; in test [2], more than 100 µM; in test [3], more than 100 µM; in [4], 43 µM; in test [5], more than 100 µM; in [6] it was 49.8 µM. The TGI in [7] is more than 100 µM; in [8] it was 40.3 µM; in test [9], more than 100 µM; in [10], 66.5 µM.

On to `CN1C=C(C(N)=O)Cc2ccsc21`, for which the TGI in test [1], in [2], in test [3], in [4], in test [5] and in test [6] was more than 100 µM throughout. Further, the TGI in test [7], in [8], in test [9] and in test [10] was more than 100 µM in each case.

For the compound `O=C1C[C@@H]2[C@@H](C=CC23CCCC3)N1O`, the TGI in [1], in test [2], in test [3], in test [4], in test [5] and in test [6] was more than 100 µM throughout. Moreover, the TGI in [7], in test [8], in test [9] and in test [10] was more than 100 µM each time.

Take `O=C1/C(=C/c2ccccc2)CN(C(=O)/C=C/c2ccccc2)C/C1=C\c1ccccc1`: the TGI in test [1] was 12.8 µM; in test [2], 37.2 µM; in test [3], 32.6 µM; in [4], more than 35 µM; in [5], 99.4 µM; in test [6], 7.37 µM. The TGI came to 38.7 µM in [7], 2.02 µM in test [8], 48.9 µM in test [9] and 24.8 µM in test [10].

For `O=C1CC2=CCCC2O1` (stereo not given), the TGI in test [1], in test [2], in [3], in test [4], in [5] and in test [6] was more than 100 µM throughout. Moreover, the TGI in [7], in test [8], in test [9] and in [10] was more than 100 µM in each case.

With `COc1ccc(C(=O)c2no[n+]([O-])c2C(=O)c2ccc(OC)cc2)cc1`, the GI50 in test [1] was 3.5 µM; in test [2], 17.2 µM; in test [3], 2.94 µM; in test [4] it was 12.6 µM; in test [5], 1.9 µM; in test [6] it was 2.53 µM. The GI50 in test [7] is 3.11 µM; in test [8] it was 1.69 µM; in test [9], 15.2 µM; in [10] it was 2.19 µM. The TGI in test [1] was 11.7 µM; in test [2], 34.4 µM; in test [3], 8.74 µM; in test [4], 25.1 µM; in test [5] it was 4 µM; in test [6], 7.07 µM. Besides, the TGI was found to be 7.98 µM in [7], 3.05 µM in [8], 29.3 µM in [9] and 4.97 µM in [10].

As to `O=C1c2ccccc2-n2c1nc1ccc([N+](=O)[O-])cc1c2=O`, the TGI in test [1] was more than 100 µM; in test [2], more than 100 µM; in [3], more than 100 µM; in [4], more than 100 µM; in test [5], 99.7 µM; in [6] it was more than 100 µM. Besides, the TGI in [7], in test [8], in test [9] and in [10] was more than 100 µM each time.

For the compound `Cc1ccc(C)c(NC(=O)C(=O)C(C2C(C)CC(=O)C2CC(=O)O)[N+](=O)[O-])c1` (stereo not given), the TGI in test [1], in test [2], in test [3], in test [4], in test [5] and in test [6] was more than 100 µM in each case. For the same compound, the TGI in test [7], in test [8], in test [9] and in test [10] was more than 100 µM each time.

`Cc1nc2sc(C(=O)Nc3cccc4c3OCCO4)c(N)c2cc1C(C)O` (stereo not given): the GI50 in test [1] was 3.01 µM; in test [2], 6.25 µM; in [3], 6.67 µM; in test [4] it was 4.82 µM; in [5], 4.91 µM; in [6], 4.66 µM. Also, the GI50 was more than 100 µM in test [7], 5.57 µM in [8], 5.35 µM in test [9] and 2.96 µM in [10]. For the same compound, the TGI in [1], in test [2], in test [3], in [4], in [5] and in test [6] was more than 100 µM in each case. The TGI was more than 100 µM in test [7], more than 100 µM in [8], more than 100 µM in [9] and 13.8 µM in test [10].

For the compound `O=[N+]([O-])c1cc2c(ccc3ccccc32)o1`, the GI50 was 0.173 µM in test [1]; 0.413 µM in [2]; 0.331 µM in test [3]; 0.141 µM in test [4]; 0.31 µM in test [5]; 0.835 µM in [6]. For the same compound, the GI50 in [7] was 0.455 µM; in [8], 0.215 µM; in test [9], 1.31 µM; in test [10], 0.617 µM. Further, the TGI in test [1] was determined as 0.472 µM; in [2] it was 3.12 µM; in [3], 2.03 µM; in test [4], 0.296 µM; in test [5], 3.06 µM; in [6], 5.62 µM. Besides, the TGI in [7] came to 9.73 µM; in test [8], 0.855 µM; in [9], 4.92 µM; in test [10], 2.97 µM.

`CC(=O)CC(=O)Nc1ccc(OS(N)(=O)=O)cc1`: the TGI in test [1], in [2], in [3], in [4], in test [5] and in test [6] was more than 100 µM each time. In addition, the TGI in [7], in test [8], in test [9] and in test [10] was more than 100 µM throughout.

With `COc1ccc(/C(=N/O)c2cc(F)c(F)c(OC)c2F)cc1O`, the GI50 in [1] was 0.344 µM; in test [2], 1.06 µM; in test [3] it was 1.9 µM; in test [4], 0.599 µM; in test [5] it was 0.538 µM; in test [6], 0.634 µM. The GI50 in test [7] is 0.839 µM; in test [8] it was 0.393 µM; in [9], 0.502 µM; in [10], 0.427 µM. Further, the total growth inhibition concentration (TGI) is more than 100 µM in test [1]; more than 100 µM in test [2]; more than 100 µM in [3]; 17.3 µM in test [4]; more than 100 µM in test [5]; more than 100 µM in test [6]. Also, the TGI in [7] is more than 100 µM; in [8], more than 100 µM; in [9] it was more than 100 µM; in test [10], 5.27 µM.

Take `CCOC(=O)c1c(C)n(Cc2ccc(Cl)cc2Cl)c2c1cc(O)c1[nH]c(Cc3ccccc3)nc12`: the GI50 in test [1] is 11 µM; in [2], 2.86 µM; in [3], 3.6 µM; in test [4], 1.58 µM; in test [5], 8.29 µM; in [6], 3.41 µM. The GI50 in test [7] is 2.59 µM; in [8], 2.18 µM; in test [9], 4.61 µM; in test [10], 7.62 µM. In addition, the TGI stood at 37.5 µM in test [1]; 14 µM in test [2]; 10.6 µM in [3]; 3.25 µM in test [4]; 26.8 µM in test [5]; 12.1 µM in test [6]. For the same compound, the TGI came out at 6.21 µM in test [7], 4.76 µM in [8], 19.4 µM in [9] and 19.9 µM in [10].

Regarding `COc1cc(/C=C2\CC3C4CC=C5C[C@@H](N6CCCC6)CC[C@]5(C)C4CC[C@]3(C)[C@H]2OC(C)=O)ccc1OCCCn1ccnc1` (stereo not given in full), the GI50 was 0.304 µM in [1]; 2.79 µM in [2]; 4 µM in test [3]; 0.373 µM in test [4]; 0.641 µM in test [5]; 0.0845 µM in [6]. In addition, the GI50 in [7] is 3.87 µM; in [8], 0.0938 µM; in test [9], 0.435 µM; in [10], 0.196 µM. The TGI in [1] came out at 0.752 µM; in [2] it was 10.3 µM; in test [3] it was 7.96 µM; in test [4], 0.79 µM; in [5], 2.63 µM; in test [6] it was 0.164 µM. Further, the TGI in [7] is more than 29.2 µM; in [8], 1.52 µM; in test [9] it was 1.08 µM; in [10], 0.459 µM.

As for `C=CCN=C1NC(=O)C(CC(=O)Nc2ccc([N+](=O)[O-])cc2[N+](=O)[O-])S1` (stereo not given), the TGI in test [1], in test [2], in [3], in [4], in [5] and in test [6] was more than 100 µM each time. In addition, the TGI in test [7], in test [8], in test [9] and in test [10] was more than 100 µM throughout.
